According to ChEMBL document CHEMBL1201862, “PubChem BioAssay data set” (2004):
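Five concentrations, 48 hours, 96-well plates. The concentration for 50% growth inhibition is given as GI50.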 The source made the active and inactive calls. Rule as the data show it: active = GI50 up to about 1.1 µM and inactive = higher.

Tests used:
Test in all cases: inhibition of tumour cell growth, NCI panel, 48 h
DMS-273 = system: DMS-273
RXF 631 = system: RXF 631
DMS-114 = system: DMS-114
DLD-1 = system: DLD-1
SNB-78 = system: SNB-78
M19-MEL = system: M19-MEL
KM-20L2 = system: KM-20L2
XF498 = system: XF498
Hs-578T = system: Hs-578T

Measured: GI50

COC(=O)C1CCCC2(C1)OCCO2 (stereo unspecified)
inactive: DMS-273 > 100 µM | RXF 631 > 100 µM | DMS-114 > 100 µM | DLD-1 > 100 µM | SNB-78 > 100 µM | M19-MEL > 100 µM | KM-20L2 > 100 µM

Cc1ccc(S(=O)(=O)N/N=C(/CC(=O)c2c(C)[n+]([O-])c3ccccc3[n+]2[O-])C(=O)Nc2ccc(C)c(C)c2)cc1
inactive: DMS-273 44.8 µM | RXF 631 > 100 µM | DMS-114 19.6 µM | DLD-1 > 100 µM | SNB-78 > 100 µM | M19-MEL 17.9 µM | KM-20L2 > 100 µM

Clc1cccc(N2CCN(CCN3CCc4c([nH]c5ccccc45)C3c3cccnc3)CC2)c1 (stereo unspecified)
inactive: DMS-273 37.9 µM | XF498 40.3 µM | DMS-114 73.5 µM | DLD-1 39.4 µM | SNB-78 > 100 µM | M19-MEL > 100 µM | KM-20L2 24 µM | Hs-578T > 68.9 µM

Nc1nc(Cl)cc(NCC(O)CO)n1 (stereo unspecified)
inactive: DMS-273 > 100 µM | XF498 > 100 µM | DMS-114 > 100 µM | DLD-1 > 100 µM | SNB-78 > 100 µM | M19-MEL > 100 µM | KM-20L2 > 100 µM

O=C1c2ccccc2C2(O)N(c3ccccc3)C(=S)N(c3ccccc3)C12O (stereo unspecified)
inactive: DMS-273 > 100 µM | RXF 631 > 100 µM | DMS-114 > 100 µM | DLD-1 > 100 µM | SNB-78 > 100 µM | M19-MEL > 100 µM | KM-20L2 > 100 µM

O=C(CC1C(=O)Nc2ccccc2S1(=O)=O)Nc1ccc(Cl)cc1 (stereo unspecified)
inactive: DMS-273 13.1 µM | XF498 11.7 µM | RXF 631 27.6 µM | DMS-114 13.4 µM | DLD-1 33.5 µM | SNB-78 21.7 µM | M19-MEL 24 µM | KM-20L2 > 100 µM

CCOC(=O)C1([Se]c2ccccc2)CCCC1=O (stereo unspecified)
inactive: DMS-273 14.4 µM | XF498 16.1 µM | RXF 631 66.5 µM | DMS-114 3.83 µM | DLD-1 16.6 µM | SNB-78 24 µM | M19-MEL 19.7 µM | KM-20L2 36.6 µM

COC1CC(O)C(OC(=O)c2ccccc2)C(C)O1 (stereo unspecified)
inactive: DMS-273 > 100 µM | XF498 > 100 µM | RXF 631 > 100 µM | DLD-1 > 10 µM | SNB-78 > 100 µM | M19-MEL > 100 µM | KM-20L2 > 100 µM

COc1ccc(-c2cc(=O)c3cc(C)c(C)c(C(=O)O)c3o2)cc1
inactive: DMS-273 > 100 µM | XF498 > 100 µM | RXF 631 > 100 µM | DMS-114 15.3 µM | DLD-1 > 100 µM | SNB-78 > 100 µM | M19-MEL > 100 µM | KM-20L2 > 100 µM

CCc1c(OC(C)=O)c2c(NC3OCC(OC(C)=O)C(OC(C)=O)C3OC(C)=O)nc(SC)nc2oc1=O (stereo unspecified)
inactive: XF498 > 100 µM | RXF 631 > 100 µM | DLD-1 > 100 µM | SNB-78 > 100 µM | M19-MEL > 100 µM | KM-20L2 > 100 µM

N[C@H](C(=O)O)[C@H]1ON=C(Cl)[C@@H]1O
inactive: DMS-273 1.16 µM | XF498 59 µM | DMS-114 6.61 µM | SNB-78 28.1 µM | M19-MEL 1.87 µM | Hs-578T 8.65 µM
active: DLD-1 1.09 µM | KM-20L2 0.343 µM

C=C1C(=O)C23CC1CCC2C12CO[C@@H]4OCC(C)(CC[C@@H]1OC3=O)C42 (stereo partly specified)
inactive: DMS-273 6.56 µM | XF498 1.92 µM | RXF 631 12.1 µM | DMS-114 1.9 µM | DLD-1 3.52 µM | SNB-78 2.3 µM | M19-MEL 6.53 µM | KM-20L2 5.38 µM

C[C@H]1CCC2C(OC(=O)[C@@H]2CN(C)C)[C@]2(C)C(=O)C=CC12O (stereo partly specified)
inactive: DMS-273 3.12 µM | RXF 631 1.31 µM | DMS-114 2.93 µM | DLD-1 2.99 µM | M19-MEL 4.26 µM | KM-20L2 2.17 µM | Hs-578T 4.27 µM
